Experiments:
myeloma cell line JJN3 = assay: Cell growth inhibition (PrestoBlue) in myeloma cell line JJN3; assay type: cell-based, Human; conditions: FIG. 3a
Procedure: Cell Culture. Human myeloma cell lines JJN3 were purchased from ATCC, KMM-1 was procured from the Japanese Collection of Research Bioresources Cell Bank (JCBR, Japan). The MM1.R cell line was a kind gift from Dr. Jonathan Keats, Translational Genomics Research Institute (TGen, USA). JJN3 cells were grown in RPMI-1640 medium (Sigma Aldrich, USA) supplemented with 5% heat inactivated FBS (Gibco), 1% I-glutamine (Gibco), 5 mM HEPES, and 1% Penstrep (Sigma Aldrich, USA); KMM-1 cells in RPMI-1640 media supplemented with 10% FBS, 1% L-glutamine (Gibco) and 1% Penstrep; MM1.R cells in advanced RPMI-1640 medium with 4% FBS and 1% Glutamax, in a humidified 5% CO2 incubator at 37° C. Cell lines were tested regularly for mycoplasma and kept free of contamination. Lenalidomide, terameprocol (Sigma Aldrich, USA) and pomalidomide from Selleck chemicals were used.
Cell Growth Inhibition Studies. A 48-h cell growth inhibition assay was conducted using the PrestoBlue cell viability kit (Invitrogen, ON, Canada). Cells were plated at 10,000 cells/well in 96-well tissue culture plates. The effect of single inhibitor and inhibitor combination treatments were done using appropriate vehicle and medium (blank) controls. Cells were incubated at 37° C. in a 5% CO2 incubator for 48 h or 72 h depending on the chosen duration of the study. At the end of the treatment, cell growth inhibition was determined by the PrestoBlue assay. […] Cell growth was assessed fluorometrically at 37° C. using the BioTek Synergy H4 Hybrid Multi-Mode microplate reader (535 nm excitation; 615 nm emission) with Gen 2.06 analyses software. Fluorescence values were corrected for any background fluorescence of the medium and test fractions by subtracting fluorescence readings of the appropriate blanks from the mean fluorescence readings of the untreated control and test wells. The percentage inhibition of cell growth was then defined as 1−(mean test well fluorescence/mean control well fluorescence)×100.

myeloma cell = assay: Myeloma cell growth inhibition, combination treatments (FIG. 4, FIG. 5); assay type: cell-based, Human
Procedure: Cell Growth Inhibition Studies. A 48-h cell growth inhibition assay was conducted using the PrestoBlue cell viability kit (Invitrogen, ON, Canada). Cells were plated at 10,000 cells/well in 96-well tissue culture plates. The effect of single inhibitor and inhibitor combination treatments were done using appropriate vehicle and medium (blank) controls. Cells were incubated at 37° C. in a 5% CO2 incubator for 48 h or 72 h depending on the chosen duration of the study. At the end of the treatment, cell growth inhibition was determined by the PrestoBlue assay. In brief, 10% PrestoBlue reagent was added to untreated and treated cells in […] in each well and incubated at 37° C. for one and a half hours. Cell growth was assessed fluorometrically at 37° C. using the BioTek Synergy H4 Hybrid Multi-Mode microplate reader (535 nm excitation; 615 nm emission) with Gen 2.06 analyses software. Fluorescence values were corrected for any background fluorescence of the medium and test fractions by subtracting fluorescence readings of the appropriate blanks from the mean fluorescence readings of the untreated control and test wells. The percentage inhibition of cell growth was then defined as 1−(mean test well fluorescence/mean control well fluorescence)×100.

[1] = system: IKZF1, IKZF3, IRF4, MYC and HDAC1 gene expression in human myeloma cells (KMM-1); assay: RNA Seq gene expression profiling in KMM-1 myeloma cells; assay type: cell-based; conditions: in comparison with untreated and lenalidomide (10 uM) treated conditions, FIG. 1
Procedure: RNA from myeloma cells (treated and untreated) was isolated and checked for integrity using the Agilent Bioanalyzer 2100 system (Agilent Technologies, Santa Clara, Calif., USA) and quantified using a Qubit fluorometric assay (Thermo Fisher Scientific, USA). RNA Seq was carried out at the Genome Quebec, Montreal, Canada. […] The remaining steps of library preparation were done using the NEBNext Ultra II DNA Library Prep Kit for Illumina (New England BioLabs). Adapters and PCR primers were purchased from New England BioLabs. Libraries were quantified using the Quant-iT™ PicoGreen® dsDNA Assay Kit (Life Technologies) and the Kapa Illumina GA with Revised Primers-SYBR Fast Universal kit (Kapa Biosystems). Average size fragment was determined using a LabChip GX (PerkinElmer) instrument. All bioinformatics analyses were done by the Canadian Centre for Computational Genomics (C3G)-Montréal Node, Canada.

[2] = system: HDAC1, Sp1, IRF4, IKZF1 and c-MYC protein in human myeloma cell lines JJN3 and MMIR; assay: Western blots of key protein targets in myeloma cell lines; assay type: cell-based; conditions: 1, 5, 10 and 25 uM, in comparison with panobinostat, FIG. 2a, 2b
Procedure: Western/Immunoblotting Methods. Protein lysates were obtained from untreated and CAPE (2) analog-treated myeloma cells and the concentration of proteins was determined by the BCA method. Proteins were resolved in a 4-20% criterion gel followed by electrophoretic transfer to nitrocellulose membrane (Bio-Rad Laboratories Inc., Germany). Membranes were then blocked with 5% skimmed milk in tris-buffered saline-tween (TBS-T) for 1 h and then, after rapid TBS-T washes, incubated overnight at 4° C. with a primary antibody of interest. Goat polyclonal anti-IRF4, rabbit polyclonal anti-Ikaros (Santa Cruz Biotechnology, Santa Cruz, Calif.); mouse monoclonal anti-Caspase-8, rabbit anti-Caspase-3, cleaved Caspase-3, anti-Sp1 (Cell Signaling Technology, Whitby, ON), rabbit monoclonal anti-MYC and mouse monoclonal β-actin antibody (Abcam, Cambridge, Mass.) were the primary antibodies used for this study. Following this, the membrane was incubated with HRP conjugated secondary antibodies. Protein levels in immunoblots were detected with an Amersham™ ECL™ Prime western blotting detection kit (GE Healthcare, ON, Canada), the imaging was performed using the ChemiDoc™ MP imaging system (Bio-Rad Laboratories, USA) and densitometry analyses were done using the Image Lab 5.0 software.

SMILES: O=C(/C=C/c1cc(O)ccc1O)OCCCc1ccccc1 [As26]
- myeloma cell growth inhibition (myeloma cell line JJN3; combination 2.5 μM As26 with 0.001 nM panobinostat): 54.4%
- myeloma cell growth inhibition (myeloma cell line JJN3; combination 5 μM As26 with 0.001 nM panobinostat): 69.8%
- myeloma cell growth inhibition, combination versus single agents (myeloma cell; Sp1 inhibitor Terameprocol (TMP) and As26 combination, FIG. 5): augmented myeloma cell growth inhibition
- myeloma cell growth inhibition, combination versus single agents (myeloma cell; Trichostatin A and IC 50 As26 combination treatment, FIG. 4): augmented myeloma cell growth inhibition

SMILES: O=C(/C=C/c1ccc(O)c(O)c1)OCCc1ccccc1 [CAPE, caffeic acid phenethyl ester]
- gene expression of IKZF1, IKZF3, IRF4, MYC and HDAC1 ([1]; 50 uM): downregulated
- protein levels of HDAC1, Sp1, IRF4, IKZF1 and c-MYC [2]: lowered

SMILES: O=C(/C=C/c1ccc(O)c(O)c1)OCCCc1ccccc1 [GL8]
- gene expression of IKZF1, IKZF3, IRF4, MYC and HDAC1 ([1]; 25 uM): downregulated
- gene expression of IKZF1, IKZF3, IRF4, MYC and HDAC1 ([1]; 50 uM): downregulated

SMILES: Cc1[nH]c2ccccc2c1CCNCc1ccc(/C=C/C(=O)NO)cc1 [panobinostat, reference compound]
- inhibition at 1 pM (myeloma cell line JJN3; Homo sapiens, JJN-3, panobinostat alone, 0.001 nM): 17 ± 3%

Source: patent US20230115120A1, “COMPOSITIONS, METHODS AND USES OF COMBINATION TREATMENTS FOR BLOOD CANCERS” (University of New Brunswick, priority 2020, published 2023)
